Data on 1 compound can be found in patent US20100112012A1, “MODULATION OF IMMUNE RESPONSES” (CLEVELAND CLINIC FOUNDATION, priority 2005, published 2010).

The subject of one data set is RCC cell lines. Description: Growth inhibition assay, RCC, non-RCC and normal kidney (NKE) cells. It is filed as cell-based, human. The conditions noted are these: 6 RCC and 6 non-RCC cell lines, growth inhibition assay.
The test system of a further data set is histone H2A.X. Description: Immunofluorescent detection of phosphorylated histone H2A.X. The conditions noted are these: HT1080 cells, 10 μM. It is filed as cell-based, human. The source says:
(§1) All washings were done with blocking solution.

Data set [1] concerns NF-κB. Nature of the data set: NF-κB-dependent reporter in H1299-NF-kBLuc cells. In kind it is cell-based, human. The conditions noted are these: TNF 10 ng/ml. The protocol: Transient transfections. 2×10^5 cells were plated into 6-well plates and, after overnight incubation, transfected with Lipofectamin Plus reagent (Gibco BRL) with 0.5 μg of reporter plasmids (p21-ConALuc or pNF-κBLuc) in combination with different concentrations of plasmids expressing p53, Arf, Ss-IκB, or siHDM2. Corresponding empty vectors were added in all transfections up to 2 μg of total DNA. Normalization of transfection efficiency was done by adding 0.2 μg of pCMV-LacZ plasmid. Luciferase activity and β-galactosidase activity were measured in lysates prepared 48 hours after transfection with Cell Lysis Buffer (Promega) by the luciferase assay system (Promega) or β-galactosidase enzyme system (Promega). Luminometric and colorimetric reactions were read on the Wallack 1420 plate reader (Perkin Elmer). Stable transduction of reporters. 2×10^4 cells with integrated reporter were plated in 96-well plates. After overnight incubation, chemicals or media from lentivirus-producing cells were added. At different times, cell lysates were prepared using Reporter Lysis Buffer (Promega). Luciferase or β-galactosidase activity and protein concentration were measured in aliquots of cell lysates using standard kits (Promega, Luciferase and β-galactosidase assay systems, Biorad Protein Assay Kit).

Data set [2] has as its system NF-κB. Nature of the data set: Electromobility shift assay and immunofluorescent staining of nuclear NF-κB. The conditions noted are these: TNF 10 ng/ml, 10 μM. It is filed as cell-based, human.
From the text: as §1

In another data set the test system is ACHN cells. Description: Experimental chemotherapy of tumor xenografts. It is filed as in vivo, nude mice. Conditions: 5-fluorouracil 35 mg/kg. The procedure:
NIH Swiss athymic nude, male mice, 5-6 weeks old, were purchased from Harlan. 5×10^6 tumor cells were inoculated into the flanks of mice in 100 μL of PBS. When tumors reached 5 mm in diameter, intraperitoneal injections of drugs were started in 100 μL of a solution of 50% DMSO in PBS (except for quinacrine, which was dissolved in PBS). As vehicle, 50% DMSO solution in PBS was used. Tumor size was measured in three dimensions every other day.

In a further data set the test system is p53. Nature of the data set: p53 reporter in organ cultures of human RCC tumor samples. In kind it is cell-based. The conditions noted are these: 12 hours. The procedure:
FIG. 11. QC can activate p53 transactivation in organ cultures of human RCC tumor samples. Fresh surgically removed samples of tumor and adjacent normal kidney were cut into small pieces and put into media containing ConALacZ virus (5×10^7 TU/ml) with […] of polybrene for 4 hours. 24 hours after infection, tissue pieces (at least three per treatment) were incubated with media containing quinacrine or doxorubicin for 12 hours. Then the tissues were fixed for 30 min in PBS containing 0.5% glutaraldehyde and 1 mM MgCl2. Pieces of tumor were stained in PBS solution containing X-gal (1 mM MgCl2, 3.3 mM K4Fe(CN)6, 3.3 mM K3Fe(CN)6, 0.02% NP40, 0.2% X-gal) overnight at 37° C. Stained specimens were analyzed microscopically by squeezing pieces of tumor and normal tissues between two glass slides.

The subject of data set [3] is hapten-specific CD8 T cells producing IFN-γ. Nature of the data set: ELISPOT assay of hapten-specific CD8 T cells producing IFN-γ. In kind it is in vivo, BALB/c mice. Conditions: day +5. The procedure: ELISPOT assays to enumerate hapten-specific T cells producing IFN-γ were performed as previously described. Briefly, ELISPOT plates (Millipore, Bedford, Mass.) were coated with 100 ml of […] anti-IFN-γ mAb R26A2 and incubated overnight at […]. The plates were blocked with 1% BSA in PBS for 90 min at 37° C. and washed four times with PBS. LNC suspensions from DNFB-sensitized mice were prepared on day +5 after sensitization and CD8 + T cells were enriched by negative selection using Dynabeads (Dynal A. S., Oslo, Norway). The efficiency of CD4+ T cell depletion was >95% as assessed by flow cytometry. Syngeneic spleen cells from naive mice were treated with […] mitomycin C, hapten-labeled by incubation with DNBS ([…]), and used as stimulator cells. Responder LNC were resuspended in serum-free HL-1 medium (BioWhittaker, Walkersville, Md.) and cultured at 3×10^5 cells/well with 5×10^5 stimulator cells/well 24 h at 37° C. in 5% CO2. In all experiments responder CD8+ T cells cultured with unlabeled splenocytes and LNC from naive mice cultured with DNBS-labeled stimulator cells were used as negative controls. […] The resulting spots were counted on an ImmunoSpot Series 1 Analyzer (Cellular Technologies Ltd., Cleveland, Ohio) that was designed to detect spots with predetermined criteria for size, shape and colorimetric density. […]

For data set [4], the system named is antigen-presenting dendritic cells. Description: Flow cytometry of CD11c+/FITC+ dendritic cells in skin draining lymph nodes. Conditions: day +2. In kind it is in vivo, BALB/c mice. The protocol: LNC were obtained from hapten-sensitized mice on day +2 post-sensitization. To prevent non-specific antibody binding cells were incubated with rat serum (Rockland, Gilbertsville, Pa.) diluted 1:1000 in staining buffer (Dulbecco's PBS with 2% FCS/0.02% NaN3) for 20 min on ice. Then cells were washed and stained with PE-labeled anti-CD11c mAb to detect DC. Stained cells were washed five times, resuspended in staining buffer and analyzed by two-color flow cytometry using a FACScan (Becton Dickinson, San Jose, Calif.).
To detect Langerhans cells in the lymph nodes LNC were obtained 48 h after sensitization with 1% FITC and were stained with PE-labeled anti-CD11c mAb and then analyzed by two-color flow cytometry.

A further data set deals with ovalbumin-specific IgG. Description: Ovalbumin immunization, ovalbumin-specific IgG titers by ELISA. It is filed as in vivo, BALB/c mice. The conditions noted are these: ovalbumin 100 ug i.p. days 0 and 7; quinacrine 80 mg/kg days 1, 2, 8 and 9; serum day 14.

Each structure is given as a SMILES string. Entries after “also recorded” stand apart in the source; their conditions may differ.

Description for RCC cell lines: Growth inhibition assay. […] Cell survival was estimated after an additional 48 hours, using standard Methylene Blue staining followed by extraction and colorimetrical detection of the dye.

For `CCN(CC)CCCC(C)Nc1c2ccc(Cl)cc2nc2ccc(OC)cc12` (centres unmarked) [QC, quinacrine], the “IC50 in RCC cells compared with non-RCC cells” value in the data set with RCC cell lines is given as “in the same range as for non-RCC cells”. In addition, the “phosphorylation of histone H2A.X” value with histone H2A.X is recorded as “Neither 9AA nor QC induced phosphorylation of histone H2A.X”. Further, the “basal and TNF-induced NF-κB reporter activities” value with NF-κB [1] (H1299-NF-kB-Luc cells) was “strong dose-dependent suppression; also recorded: capable of inhibiting both basal and TNF-induced activities of NF-κB”. Further, the “timing of addition relative to TNF needed to inhibit NF-κB” value with NF-κB [1] (H1299-NF-κBLuc cells) is listed as “can inhibit NF-κB when added before, simultaneously with or after TNF stimulation”. Moreover, the “nuclear accumulation and retention of NF-κB (p65) complexes” value in the data set with NF-κB [2] is “greatly prolonged the time of its presence in nuclei”. For the same compound, in the data set with ACHN cells (ACHN cells subcutaneous in nude mice, QC 50 mg/kg intraperitoneal), the “growth of tumor xenografts” value was “inhibited the growth of tumor xenografts; also recorded: same antitumor effect as 5-fluorouracil”. In addition, the weight loss entry with ACHN cells (ACHN xenograft nude mice, QC 50 mg/kg) was “without the significant weight loss”. Also, in the data set on p53 (organ cultures of adjacent normal kidney), the “p53-responsive reporter induction in normal kidney samples” value is given as “no reporter induction”. The “expression of a p53-responsive reporter in tumor samples” value in the data set on p53 (organ cultures of human RCC) is “can be also detected in short-term organ cultures; also recorded: induced expression of a p53-responsive reporter in tumor samples”. Moreover, the “increase in priming of antigen-specific effector T cells” value in [3] (quinacrine on days 0 and +1 (during sensitization)) is given as around 3 fold. For the same compound, the “priming of antigen-specific T cells (IFN-γ producing CD8 T cells)” value in data set [3] (quinacrine on days −2 and −1 (just prior to sensitization)) is given as “inhibits the priming of antigen-specific T cells; also recorded: decreased the priming of antigen-specific T cells”. Besides, the “numbers of antigen-presenting dendritic cells in the skin draining lymph nodes” value in [4] (quinacrine on days 0 and +1 (during 1% FITC sensitization)) is “increased numbers of antigen-presenting dendritic cells”; in data set [4] (quinacrine on days −2 and −1 (prior to 1% FITC sensitization)) it was “decreased numbers of antigen-presenting dendritic cells”. The “increase of antigen-specific titers of IgG” value in the data set with ovalbumin-specific IgG is 4 fold.
